Read-outs that look alike come from different tables or passages of the source.
Experiments:
NSCLC A549 cell line = experiment: MTT assay against human tumor NSCLC A549 cell line; format: cell-based
colon LOVO cell line = experiment: MTT assay against colon LOVO cell line; format: cell-based, human

SMILES	IC50 (NSCLC A549 cell line) [nM]	IC50 (colon LOVO cell line) [nM]	IC50 (NSCLC A549 cell line; Homo sapiens) [nM]	IC50 (colon LOVO cell line; Homo sapiens) [nM]
COc1cc2c(Oc3ccc4[nH]c(C)cc4c3F)ccnc2cc1OCCN1CC2(CC2)C2(C1)OCCO2 [Example 1, 4-(4-Fluoro-2-methyl-1H-indol-5-yloxy)-6-methoxy-7-[2-(5,8-Dioxa-10-azadispiro[2.0.4.3]-undecane)ethoxy]quinoline]	90	200		
COc1cc2c(Oc3ccc4[nH]c(C)cc4c3F)ccnc2cc1OCCN1CC(=O)C2(CC2)C1 [Example 2, 5-(2-(4-(4-Fluoro-2-methyl-1H-indol-5-yloxy)-6-methoxyquinolin-7-yloxy)ethyl)-5-azaspiro[2.4]-heptan-7-one]			100	300
COc1cc2c(Oc3ccc4[nH]c(C)cc4c3F)ccnc2cc1OCCN1CC(O)C2(CC2)C1 (stereo not drawn) [Example 3, 5-(2-(4-(4-fluoro-2-methyl-1H-indol-5-yloxy)-6-methoxyquinolin-7-yloxy)ethyl)-5-azaspiro[2.4]-heptan-7-ol]			100	400
COc1cc2c(Oc3ccc4[nH]c(C)cc4c3F)ccnc2cc1OCCCN1CC2(CC2)C2(C1)OCCO2 [Example 6, 4-(4-fluoro-2-methyl-1H-indol-5-yloxy)-6-methoxy-7-[3-(5,8-Dioxa-10-azadispiro[2.0.4.3]-undecane)propoxy]quinoline]	80	400		
COc1cc2c(Oc3ccc4[nH]c(C)cc4c3F)ccnc2cc1OCCCN1CC(=O)C2(CC2)C1 [Example 7, 5-(3-(4-(4-Fluoro-2-methyl-1H-indol-5-yloxy)-6-methoxyquinolin-7-yloxy)propyl)-5-azaspiro[2.4]-heptan-7-one]			90	200
C=C1CN(CCCOc2cc3nccc(Oc4ccc5[nH]c(C)cc5c4F)c3cc2OC)CC12CC2 [Example 10, 4-(4-Fluoro-2-methyl-1H-indol-5-yloxy)-6-methoxy-7-(3-(7-methylene-5-azaspiro[2.4]heptan-5-yl)propoxy)quinoline]			100	400
CNC(=O)c1c(C)oc2cc(Oc3ccnc4cc(OCCN5CC6(CC6)C6(C5)OCCO6)c(OC)cc34)ccc12 [Example 11, 6-(6-Methoxy-7-[2-(5,8-Dioxa-10-azadispiro[2.0.4.3]undecane)ethoxy]quinolin-4-yloxy)-N,2-dimethylbenzofuran-3-carboxamide]	200	700		
CNC(=O)c1c(C)oc2cc(Oc3ccnc4cc(OCCN5CC(=O)C6(CC6)C5)c(OC)cc34)ccc12 [Example 12, 6-(6-Methoxy-7-(2-(7-oxo-5-azaspiro[2.4]heptan-5-yl)ethoxy)quinolin-4-yloxy)-N,2-dimethylbenzofuran-3-carboxamide]			300	900
CNC(=O)c1c(C)oc2cc(Oc3ccnc4cc(OCCN5CC(O)C6(CC6)C5)c(OC)cc34)ccc12 (stereo not drawn) [Example 13, 6-(7-(2-(7-Hydroxy-5-azaspiro[2.4]heptan-5-yl)ethoxy)-6-methoxyquinolin-4-yloxy)-N,2-dimethylbenzofuran-3-carboxamide]			200	900
CNC(=O)c1c(C)oc2cc(Oc3ccnc4cc(OCCN5CC(OC)C6(CC6)C5)c(OC)cc34)ccc12 (stereo not drawn) [Example 14, 6-(6-Methoxy-7-(2-(7-methoxy-5-azaspiro[2.4]heptan-5-yl)ethoxy)quinolin-4-yloxy)-N,2-dimethylbenzofuran-3-carboxamide]			200	700
C=C1CN(CCOc2cc3nccc(Oc4ccc5c(C(=O)NC)c(C)oc5c4)c3cc2OC)CC12CC2 [Example 15, 6-(6-Methoxy-7-(2-(7-methylene-5-azaspiro[2.4]heptan-5-yl)ethoxy)quinolin-4-yloxy)-N,2-dimethyl-benzofuran-3-carboxamide]			300	900
CNC(=O)c1c(C)oc2cc(Oc3ccnc4cc(OCCCN5CC6(CC6)C6(C5)OCCO6)c(OC)cc34)ccc12 [Example 16, 6-(6-Methoxy-7-[3-(5,8-Dioxa-10-azadispiro[2.0.4.3]undecane)propoxy]quinolin-4-yloxy)-N,2-dimethylbenzofuran-3-carboxamide]	200	700		
CNC(=O)c1c(C)oc2cc(Oc3ccnc4cc(OCCCN5CC(O)C6(CC6)C5)c(OC)cc34)ccc12 (stereo not drawn) [Example 18, 6-(7-(3-(7-Hydroxy-5-azaspiro[2.4]heptan-5-yl)propoxy)-6-methoxyquinolin-4-yloxy)-N,2-dimethyl-benzofuran-3-carboxamide]			500	800
CNC(=O)c1c(C)oc2cc(Oc3ccnc4cc(OCCCN5CC(OC)C6(CC6)C5)c(OC)cc34)ccc12 (stereo not drawn) [Example 19, 6-(6-Methoxy-7-(3-(7-methoxy-5-azaspiro[2.4]heptan-5-yl)propoxy)quinolin-4-yloxy)-N,2-dimethyl-benzofuran-3-carboxamide]			200	700
C=C1CN(CCCOc2cc3nccc(Oc4ccc5c(C(=O)NC)c(C)oc5c4)c3cc2OC)CC12CC2 [Example 20, 6-(6-Methoxy-7-(3-(7-methylene-5-azaspiro[2.4]heptan-5-yl)propoxy)quinolin-4-yloxy)-N,2-dimethylbenzofuran-3-carboxamide]			300	900
CNC(=O)c1cccc2cc(Oc3ccnc4cc(OCCN5CC(=O)C6(CC6)C5)c(OC)cc34)ccc12 [Example 22, 6-(6-Methoxy-7-(2-(7-oxo-5-azaspiro[2.4]heptan-5-yl)ethoxy)quinolin-4-yloxy)-N-methyl-1-naphthamide]			700	1100
CNC(=O)c1cccc2cc(Oc3ccnc4cc(OCCN5CC(OC)C6(CC6)C5)c(OC)cc34)ccc12 (stereo not drawn) [Example 24, 6-(6-Methoxy-7-(2-(7-methoxy-5-azaspiro[2.4]heptan-5-yl)ethoxy)quinolin-4-yloxy)-N-methyl-1-naphthamide]			1000	1500
CNC(=O)c1cccc2cc(Oc3ccnc4cc(OCCCN5CC(=O)C6(CC6)C5)c(OC)cc34)ccc12 [Example 27, 6-(6-Methoxy-7-(3-(7-oxo-5-azaspiro[2.4]heptan-5-yl)propoxy)quinolin-4-yloxy)-N-methyl-1-naphthamide]			400	900
CNC(=O)c1cccc2cc(Oc3ccnc4cc(OCCCN5CC(OC)C6(CC6)C5)c(OC)cc34)ccc12 (stereo not drawn) [Example 29, 6-(6-Methoxy-7-(3-(7-methoxy-5-azaspiro[2.4]heptan-5-yl)propoxy)quinolin-4-yloxy)-N-methyl-1-naphthamide]			300	900

Next, values leading:

IC50 (NSCLC A549 cell line) [nM]	IC50 (colon LOVO cell line) [nM]	IC50 (NSCLC A549 cell line; Homo sapiens) [nM]	IC50 (colon LOVO cell line; Homo sapiens) [nM]	SMILES
		80	400	COc1cc2c(Oc3ccc4[nH]c(C)cc4c3F)ccnc2cc1OCCN1CC(OC)C2(CC2)C1 (stereo not drawn) [Example 4, 4-(4-Fluoro-2-methyl-1H-indol-5-yloxy)-6-methoxy-7-(2-(7-methoxy-5-azaspiro[2.4]heptan-5-yl)ethoxy)quinoline]
		100	400	C=C1CN(CCOc2cc3nccc(Oc4ccc5[nH]c(C)cc5c4F)c3cc2OC)CC12CC2 [Example 5, 4-(4-Fluoro-2-methyl-1H-indol-5-yloxy)-6-methoxy-7-(2-(7-methylene-5-azaspiro[2.4]heptan-5-yl)ethoxy)quinoline]
		100	300	COc1cc2c(Oc3ccc4[nH]c(C)cc4c3F)ccnc2cc1OCCCN1CC(O)C2(CC2)C1 (stereo not drawn) [Example 8, 5-(3-(4-(4-Fluoro-2-methyl-1H-indol-5-yloxy)-6-methoxyquinolin-7-yloxy)propyl)-5-azaspiro[2.4]-heptan-7-ol]
		100	400	COc1cc2c(Oc3ccc4[nH]c(C)cc4c3F)ccnc2cc1OCCCN1CC(OC)C2(CC2)C1 (stereo not drawn) [Example 9, 4-(4-Fluoro-2-methyl-1H-indol-5-yloxy)-6-methoxy-7-(3-(7-methoxy-5-azaspiro[2.4]heptan-5-yl)propoxy)quinoline]
300	900			CNC(=O)c1c(C)oc2cc(Oc3ccnc4cc(OCCCN5CC(=O)C6(CC6)C5)c(OC)cc34)ccc12 [Example 17, 6-(6-Methoxy-7-(3-(7-oxo-5-azaspiro[2.4]heptan-5-yl)propoxy)quinolin-4-yloxy)-N,2-benzofuran-3-carboxamide]
800	1100			CNC(=O)c1cccc2cc(Oc3ccnc4cc(OCCN5CC6(CC6)C6(C5)OCCO6)c(OC)cc34)ccc12 [Example 21, 6-(6-Methoxy-7-[2-(5,8-Dioxa-10-azadispiro[2.0.4.3]undecane)ethoxy]quinolin-4-yloxy)-N-methyl-1-naphthamide]
		800	1200	CNC(=O)c1cccc2cc(Oc3ccnc4cc(OCCN5CC(O)C6(CC6)C5)c(OC)cc34)ccc12 (stereo not drawn) [Example 23, 6-(7-(2-(7-Hydroxy-5-azaspiro[2.4]heptan-5-yl)ethoxy)-6-methoxyquinolin-4-yloxy)-N-methyl-1-naphthamide]
		300	900	C=C1CN(CCOc2cc3nccc(Oc4ccc5c(C(=O)NC)cccc5c4)c3cc2OC)CC12CC2 [Example 25, 6-(6-Methoxy-7-(2-(7-methylene-5-azaspiro[2.4]heptan-5-yl)ethoxy)quinolin-4-yloxy)-N-methyl-1-naphthamide]
800	1100			CNC(=O)c1cccc2cc(Oc3ccnc4cc(OCCCN5CC6(CC6)C6(C5)OCCO6)c(OC)cc34)ccc12 [Example 26, 6-(6-Methoxy-7-[3-(5,8-Dioxa-10-azadispiro[2.0.4.3]undecane)propoxy]quinolin-4-yloxy)-N-methyl-1-naphthamide]
		1000	1500	CNC(=O)c1cccc2cc(Oc3ccnc4cc(OCCCN5CC(O)C6(CC6)C5)c(OC)cc34)ccc12 (stereo not drawn) [Example 28, 6-(7-(3-(7-Hydroxy-5-azaspiro[2.4]heptan-5-yl)propoxy)-6-methoxyquinolin-4-yloxy)-N-methyl-1-naphthamide]
		900	1000	C=C1CN(CCCOc2cc3nccc(Oc4ccc5c(C(=O)NC)cccc5c4)c3cc2OC)CC12CC2 [Example 30, 6-(6-Methoxy-7-(3-(7-methylene-5-azaspiro[2.4]heptan-5-yl)propoxy)quinolin-4-yloxy)-N-methyl-1-naphthamide]
